Data from US7700584B2 (Hangzhou Minsheng Pharmaceuticals Co., Ltd., priority 2004, dated 2010).
Values after ≈ are worked out from the molar mass of the structure shown. Where two headings read alike, the source gives them in different places.

Columns and labels:
[1] = tested on: Bel-7402 human hepatic carcinoma; test: In vitro inhibition rate to tumor cells (MTT), Bel-7402; type: cell-based; settings: for inhibition at 50 µg/mL: Homo sapiens, Bel-7402, 50 μg/ml, read-out: inhibition rate, Results (%) Bel-7402; for inhibition rate, Results (%) Bel-7402: 50 μg/ml
[2] = tested on: SMMC-7721 human hepatic carcinoma; test: In vitro inhibition rate to tumor cells (MTT), SMMC-7721; type: cell-based; settings: for inhibition at 50 µg/mL: Homo sapiens, SMMC-7721, 50 μg/ml, read-out: inhibition rate, Results (%) SMMC-7721; for inhibition rate, Results (%) SMMC-7721: 50 μg/ml
[3] = tested on: U-937 human histocytic lymphoma; test: In vitro inhibition rate to tumor cells (MTT), U-937; type: cell-based; settings: for inhibition at 50 µg/mL: Homo sapiens, U-937, 50 μg/ml, read-out: inhibition rate, Results (%) U-937; for inhibition rate, Results (%) U-937: 50 μg/ml
[4] = target: T1, HIV-1 integrase (HIV-1 IN) (Human immunodeficiency virus type 1 group M subtype B, UniProt P04585); test: Screening for the activity against HIV-1 integrase; type: biochemical; settings: initial concentration 100 μg/ml; read-out: IC50
T1 construct: a purified HIV-1 integrase was added into each well; purchased
Experimental: Principle of the test: A synthetic oligonucleotide of 30 nt was used as the donor substrate. A synthetic oligonucleotide of 20 nt was used as the target substrate. A 96-well plate was covered by the donor substrate, and a purified HIV-1 integrase was added into each well. ELISA was performed to measure the product of the target DNA chain transfer. A biotin-labeled alkali phosphatase was used to visual the system. OD value was measured by an Enzyme-linked Detector. Add a sample into the reaction system for screening the inhibitor of the enzyme.
1. HIV-1 IN: commercially available.
2. Treatment of the samples: Before use, the sample was dissolved in water or DMSO at a suitable concentration, then serially diluted (5×), four serial dilutions per sample. The stock solutions of two samples were 100-fold diluted with DMSO, then 5-fold diluted, four serial dilutions per sample. Positive control: S-y, provided by Shanghai Organic Chemistry Institute.
3. The donor substrate and target substrate: synthesized by Shanghai Biological Engineering Company (Shanghai Shenggong).
4. Methods: The diluted sample was added into a 96-well plate covered by the donor substrate, and then added into the reaction buffer containing the genetic engineered target enzyme and biotin-target substrate, incubated in the optimal reaction conditions. A biotin-labeled alkali phosphatase was used to visual the system to determine the absorbance at 450 nm (OD450).

[5] = tested on: MCF-7 human mammary adenocarcinoma; test: In vitro inhibition rate to tumor cells (MTT), MCF-7; type: cell-based; settings: for inhibition at 50 µg/mL: Homo sapiens, MCF7, 50 μg/ml, read-out: inhibition rate, Results (%) MCF-7; for inhibition rate, Results (%) MCF-7: 50 μg/ml
[6] = target: T2, HIV-1 reverse transcriptase (Human immunodeficiency virus type 1 group M subtype B, UniProt P04585); test: Screening for the in vitro activity against the HIV-1 reverse transcriptase; type: biochemical; settings: IC50, initial concentration 200 μg/ml
T2 construct: purchased
Experimental: Principle of the test: The template to which the HIV-1 reverse transcriptase interacts was covered onto the enzyme-lined template. In the optimal reaction conditions and system, HIV-1 RT will put the substrate comprising Biotin-dUTP onto the reaction template. The activity of the enzyme was measured as the amount of the integrating Biotin-dUTP in the reaction by using streptavidin-labeled horseradish peroxidase. Adding the sample to the reaction system can identify inhibitor of the enzyme.
1. HIV-1 RT: commercially available.
2. Treatment of the samples: Before use, the sample was dissolved in DMSO at a suitable concentration, then serially diluted (5×) with double distilled water, five serial dilutions per sample.
4. Methods: The diluted sample was added into the reaction buffer containing Biotin-dUTP and the genetic engineered target enzyme, and incubated in the optimal reaction conditions. A streptavidin-labeled horseradish peroxidase was added to visual the system, and OD450 was measured.

[7] = tested on: HepG2 cells; test: Cell status of HepG2 cells treated with sample (HBV screening); type: cell-based; settings: 200 μg/ml, HepG2, four days after infection
Experimental: 1.5 Screening for the agents: The HepG2 cells were counted and 1.5×10^4 cells/well were seeded into a 96-well plate. After incubation overnight in an atmosphere of CO2 at 37° C., each of the experimental samples in a given concentration was added to the cells. After incubation at 37 °C for 24 hrs, the HepG2 treated with the samples were infected with vAcGFPHBVc of 100 MOI. A negative control and a positive control were also included. Four days after infection, the growth of the cells were observed, and the HBV e antigen in the supernatant was measured with the HBV e antigen diagnostic kit.

[8] = tested on: HL-60 human promyelocytic leukemia; test: In vitro inhibition rate to tumor cells (MTT), HL-60; type: cell-based; settings: for inhibition at 50 µg/mL: Homo sapiens, HL-60, 50 μg/ml, read-out: inhibition rate, Results (%) HL-60; for inhibition rate, Results (%) HL-60: 50 μg/ml
[9] = tested on: Hepatitis B virus (HBV); type: cell-based; settings: 200 μg/ml; for (Value of the positive control - Measured Value) Value of the positive control × 100%: decrease of HBeAg relative to positive control; for OD450 of HBeAg: supernatant four days after infection, positive control 1.917, negative 0.057
[10] = tested on: Hela human cervical carcinoma; test: In vitro inhibition rate to tumor cells (MTT), Hela; type: cell-based; settings: 50 μg/ml; for inhibition at 50 µg/mL: Homo sapiens, HeLa, read-out: inhibition rate, Results (%) Hela
[11] = target: T3, HIV-1 proteinase (HIV-1 PR) (Human immunodeficiency virus type 1 group M subtype B, UniProt P04585); test: Screening for in vitro activity against HIV-1 proteinase; type: biochemical; settings: for inhibition at 0.08 µg/mL: 0.08 μg/ml; for inhibition at 0.08 µg/mL / inhibition at 0.4 µg/mL / inhibition at 2 µg/mL / inhibition at 10 µg/mL: read-out: Inhibition rate; for inhibition at 0.4 µg/mL: 0.40 μg/ml; for inhibition at 2 µg/mL: 2.0 μg/ml; for inhibition at 10 µg/mL: 10 μg/ml; for IC50: IC50, five 5× serial dilutions from 50 μg/ml; for inhibition at 50 µg/mL: read-out: Inhibition rate, 50 μg/ml
T3 construct: HIV-1 proteinase digests the fluorescent-labeled substrate; purchased
Experimental: Principle of the test: HIV-1 proteinase digests the fluorescent-labeled substrate in an optimal reaction condition and system. The activity of the enzyme can be reflected by the fluorescent intensity in the product of the enzyme reaction. Adding a sample into the reaction system can be used for screening the inhibitor of the enzyme.
1. HIV-1 PR: commercially available, stored at −85° C.
2. Treatment of the samples: Before use, sample was dissolved in DMSO at a suitable concentration, then serially diluted (5×) with double distilled water, five serial dilutions per sample.
3. Positive control: indinavir, purchased from […].
4. Methods: The diluted sample was added into the reaction buffer containing the fluorescent-labeled substrate. Then the genetic engineered target enzyme was added, and incubated in the optimal reaction condition. The fluorescent value was measured with a FLUO star Galaxy luminoscope.

[12] = tested on: LLC mouse Lewis lung carcinoma; test: In vitro inhibition rate to tumor cells (MTT), LLC; type: cell-based; settings: 50 μg/ml; for inhibition at 50 µg/mL: Mus musculus, Lewis lung carcinoma
[13] = tested on: A-549 human lung adenocarcinoma; test: In vitro inhibition rate to tumor cells (MTT), A-549; type: cell-based; settings: for inhibition at 50 µg/mL: Homo sapiens, A549, 50 μg/ml, read-out: inhibition rate, Results (%) A-549; for inhibition rate, Results (%) A-549: 50 μg/ml
[14] = tested on: U-937 human histocytic lymphoma; test: In vitro anti-tumor IC50 (MTT), U-937; type: cell-based; settings: Table 4
Experimental: (§1) (1) Single cell suspension was seeded into 96-well plates (the cells was diluted in the PRMI-1640 minimum medium to 3×10^4 cells/ml, […] diluted cells/well). […] The experiments were performed in quadruplicate.
(§2) (2) The medium was removed. Solutions of the anti-tumor agents (50 compounds) were prepared in a freshly prepared medium at serial concentrations. […] of the solution was added into each well. Incubation was continued for 48 hours.
(§3) (3) 20 ug of 2 mg/ml MTT was added into each well, and incubated for 4 hours.
(§4) (4) The medium was removed from the well. The microplates were swiftly turned down to throw-off the medium. […] of DMSO was added into each well, and vortexed at room temperature for 10 minutes.
(§5) (5) OD value (λ=570 nm) was measured with an Enzyme-Linked Detector.
(§6) (6) The graph of cell vitality was plotted, and IC50 was calculated.

[15] = tested on: Hela human cervical carcinoma; test: In vitro anti-tumor IC50 (MTT), Hela; type: cell-based; settings: Table 4
Experimental: as §1, §2, §3, §4, §5, §6

Row | SMILES | inhibition at 50 µg/mL ([1]; Table 1) | inhibition at 50 µg/mL ([1]; Table 2 (repeated screening)) | inhibition at 50 µg/mL ([2]; Table 1) | inhibition at 50 µg/mL ([2]; Table 2 (repeated screening)) | inhibition at 50 µg/mL ([3]; Table 1) | inhibition at 50 µg/mL ([3]; Table 2 (repeated screening)) | inhibition at 100 µg/mL [4] | inhibition at 50 µg/mL ([5]; Table 1) | inhibition at 50 µg/mL ([5]; Table 2 (repeated screening)) | IC50 [6] | Cell status [7] | inhibition at 50 µg/mL ([8]; Table 1) | inhibition at 50 µg/mL ([8]; Table 2 (repeated screening)) | (Value of the positive control - Measured Value) Value of the positive control × 100% [9] | OD450 of HBeAg [9] | inhibition at 50 µg/mL ([10]; Table 1) | inhibition at 50 µg/mL ([10]; Table 2 (repeated screening)) | inhibition at 0.08 µg/mL [11] | inhibition at 0.4 µg/mL [11] | inhibition at 2 µg/mL [11] | further results
1 | CC(C)C1CC23OC1(O)CC(C)C2CCC3C (stereo not drawn) [Compound 33, hydrogenated curcumol derivative] | 14.3% | 14.9% | -7.44% | -1.56% | 44.3% | 43.2% | < 50% | 45.3% | 39.3% | > 839 µM | Poor | 1.32% | 7.68% | 96.45% | 0.068 | 60.9% | 59.8% | 13.2% | 11.4% | 10.6% | inhibition at 10 µg/mL [11]: 1.3%; IC50 [11]: > 210 µM; inhibition at 50 µg/mL [11]: 9.14%; inhibition at 50 µg/mL ([12]; Table 1): 4.18%; inhibition at 50 µg/mL ([12]; Table 2 (repeated screening)): 3.12%; inhibition at 50 µg/mL ([13]; Table 1): 16.3%; inhibition at 50 µg/mL ([13]; Table 2 (repeated screening)): 14.3%
2 | CCCCNC=C1CC2(O)OC3(CC2C(C)C)C(C)CCC13 (stereo not drawn) [Compound 13, Curcumol n-butyl amine] |  |  |  |  |  |  |  |  |  |  |  |  |  |  |  |  |  |  |  |  | inhibition rate, Results (%) Bel-7402 ([1]; Table 1): 33.16%; inhibition rate, Results (%) Bel-7402 ([1]; Table 2 (repeated screening)): 30.25%; inhibition rate, Results (%) SMMC-7721 ([2]; Table 1): 3.71%; inhibition rate, Results (%) SMMC-7721 ([2]; Table 2 (repeated screening)): 0.23%; IC50 (ug/ml) against tumor cell lines, U-937 [14]: 0.98 µg/mL (≈ 3.19 µM); inhibition rate, Results (%) U-937 ([3]; Table 1): 51.10%; inhibition rate, Results (%) U-937 ([3]; Table 2 (repeated screening)): 45.10%; inhibition rate, Results (%) MCF-7 ([5]; Table 1): 54.67%; inhibition rate, Results (%) MCF-7 ([5]; Table 2 (repeated screening)): 50.36%; inhibition rate, Results (%) HL-60 ([8]; Table 1): 0.12%; inhibition rate, Results (%) HL-60 ([8]; Table 2 (repeated screening)): 0.79%; inhibition rate, Results (%) Hela ([10]; Table 1): 66.32%; inhibition rate, Results (%) Hela ([10]; Table 2 (repeated screening)): 65.92%; IC50 (ug/ml) against tumor cell lines, Hela [15]: 1.6 µg/mL (≈ 5.2 µM); inhibition rate, Results (%) LLC ([12]; Table 1): 0.24%; inhibition rate, Results (%) LLC ([12]; Table 2 (repeated screening)): 1.32%; inhibition rate, Results (%) A-549 ([13]; Table 1): 7.59%; inhibition rate, Results (%) A-549 ([13]; Table 2 (repeated screening)): 3.56%
3 | CC(C)C1CC23OC1(O)CC1(CO1)C2CCC3C (stereo not drawn) [Compound 47, Curcumol epoxy compound] | 2.88% | 2.35% | -1.43% | -3.25% | 86.5% | 85.4% | < 50% | 65.1% | 60.5% | > 793 µM | Poor | 10.3% | 1.96% | 80.96% | 0.365 | 83.7% | 80.8% | 6.89% | 12.3% | 12.9% | inhibition at 10 µg/mL [11]: 1.78%; IC50 [11]: > 198 µM; inhibition at 50 µg/mL [11]: 0.56%; inhibition at 50 µg/mL ([12]; Table 1): -13.2%; inhibition at 50 µg/mL ([12]; Table 2 (repeated screening)): -14%; inhibition at 50 µg/mL ([13]; Table 1): -12%; inhibition at 50 µg/mL ([13]; Table 2 (repeated screening)): -7.85%
